Laboratory results from patent US20190290623A1, “USE OF TIOTROPIUM BROMIDE TO PREVENT PULMONARY OXYGEN TOXICITY” (priority 2018, published 2019).
Entries after “also recorded” stand apart in the source; their conditions may differ.

Columns and labels:
Format in all cases: in vivo
[1] = test system: swine exposed to 2.5 ATA hyperbaric oxygen for 5.5 hr; test: Experiment 2 deep exposure simulation: pulmonary capacity (pressure-volume loops); settings: 2.5 ATA O2 5.5 hr
Procedure: (§1) Experiment 2 is designed to evaluate the efficacy of tiotropium bromide pre-dive with respect to reducing decrements in pulmonary function due to PO2T following a 5.5 hour, 2.5 ATA hyperbaric oxygen exposure. This dive profile was selected because it caused the most significant pulmonary function deficits in humans with minimal risk of seizure due to CNS oxygen toxicity.
Pulmonary function testing: The swine had disposable prewired electrodes adhered to the dermis over the gluteal muscle and a train of four (TOF) stimulation was initiated to confirm proper placement and twitch using a DigiStim III Peripheral Nerve Stimulator (Neuro Technology Inc., Kerrville, Tex.). Atracurium besylate (50 mg, IV) (hospira, Lake Forest, Ill.) was injected into the ear vein catheter, and the swine was observed until cessation of muscle twitch with TOFs. The swine was then disconnected from the ventilator circuit, allowed to passively exhale, and connected to an O2 filled 3 L super syringe (Hamilton Company, Reno, Nev.) attached to a pressure gauge (OMEGA®, Norwalk, Conn.), and pneumotachometer (Harvard Apparatus, Holliston, Mass.). Oxygen was introduced in 100 ml increments every 3 seconds until a static pressure of 40 cm H2O was reached. The lungs were then deflated in 100 ml increments until a static pressure of −40 cm H2O. The swine was then reconnected to the ventilator and ventilated for 2 minutes before repeating the insufflation and exhalation maneuvers and measurements one more time. […] After the above measurements, swine received either nebulized Tiotropium (18 μg dissolved in saline) or an equal volume of 0.9% saline through the breathing circuit over the course of 15 minutes. The propofol infusion was then stopped, the animals were then monitored until a swallow reflex was observed then extubated. The swine were then transported to the hyperbaric chamber suite and allowed to recover until capable of standing.
Hyperbaric Exposures: Individual animals were then placed into a Plexiglas box (30 in.×42 in.×38 in., manufactured in-house) within a Multiple Large Animal Chamber (MLAC), which is a steel-hulled hyperbaric chamber (450-cubic ft. floodable volume and pressure tested to 1,230 feet of seawater [fsw] equivalent) (Bethlehem Steel Corp, Bethlehem Pa.). Pressure/depth was monitored by a CPG 2500 Digital Pressure Gauge (Mensor Corp., San Marcos, Tex.). Swine were dove in pairs with each treatment group represented. Swine box assignment was alternated with respect to treatment to avoid any effects associated with individual box environmental features. Animals were monitored via closed-circuit television to observe signs of distress related to middle ear barotrauma (e.g. head shaking, nystagmus) and seizure activity. Oxygen concentration was measured and recorded using a portable O2 analyzer (Teledyne Analytical Inst, City of Industry, Calif.). After positioning the animal inside the Plexiglas box, the MLAC was sealed and pressurized using air at the rate of I ATA/minute to a depth of 2.5 ATA. After 2.5 min at a bottom depth equivalent to 2.5 ATA, the breathing gas was switched to 100% O2 and maintained for 5.5 Hrs. After completing 5.5 Hrs on 100% O2, the inspired gas was switched back to air for 3 min. Then, the chamber was decompressed at 1 ATA/minute. Upon reaching surface the animal was transported to the surgical suite for post-dive ECG and pulmonary function measurements (identical to the pre-dive procedures). The animal was then euthanized via ear vein infusion of Euthasol (1.0-1.5 ml/10 lbs body weight) followed by a saline flush (5 cc).
Pulmonary function data analysis: Pressure and flow data from the pressure gauge and pneumotachometer respectively were collected by a Dell Laptop (Round Rock, Tex.) and an analog-digital converter card (PCI-6052E, National Instruments, Austin, Tex.) with 16 bit resolution and 200 Hz sampling rate running Labchart 8.0. […]

[2] = test system: swine exposed to 1.5 ATA hyperbaric oxygen for 17.5 hr; test: Experiment 1 shallow exposure simulation: Impulse Oscillometry (IOS); settings: 1.5 ATA O2 17.5 hr, 18 mcg nebulized pre-dive, post-dive normalized to baseline, n=7/arm
Procedure: Experiment 1 is designed to evaluate the efficacy of tiotropium bromide administered pre-dive in reducing decrements in pulmonary function due to PO2T following a 17.5 hour, 1.5 ATA hyperbaric oxygen exposure. This dive profile was selected because it was of sufficient duration to elicit persistent pulmonary function decrement in humans.
The swine were anesthetized with propofol (20 cc, I.V. target, adjusted as needed to optimize sedation), intubated and ventilated. Anesthetized swine were shaved, then ECG and EEG electrodes were placed. Animals were then paralyzed with Atracurium Besylate (50 mg, IV) for accurate pulmonary function measurements of quasi-static and dynamic compliance.
Following baseline pulmonary function measurements, the swine were randomized to receive equivalent volumes of normal saline or tiotropium bromide (18 mcg) via nebulizer. The swine were then ventilated until muscle tone was regained. […]
Next, the swine were switched to 100% oxygen breathing gas and remained at 1.5 ATA for 17.5 hr. […] When fully sedated, the swine were ventilated, paralyzed with Atracurium Besylate, and post-dive measurements of pulmonary function were recorded. During all phases of study the swine were continuously monitored for signs of seizure or distress. […]

[3] = test system: swine exposed to 1.5 ATA hyperbaric oxygen for 17.5 hr; test: Experiment 1: adverse effects observation
Procedure: Next, the swine were switched to 100% oxygen breathing gas and remained at 1.5 ATA for 17.5 hr. At the end of the 17.5 hour 1.5 ATA oxygen exposure, swine surfaced at a rate of 1 ATA/minutes (ATA/min), were transferred to a Panepinto sling, sedated with diazepam (1.5-2.0 mg/kg, I.V) and reassessed via impulse Oscillometry. The swine were again anesthetized with propofol and intubated. When fully sedated, the swine were ventilated, paralyzed with Atracurium Besylate, and post-dive measurements of pulmonary function were recorded. During all phases of study the swine were continuously monitored for signs of seizure or distress.
Once measurements were complete, animals were then euthanized by intravenous infusion of euthanasia solution (Euthasol 1-1.5 ml/10 lbs. body weight) and transported to the necropsy suite for post-mortem sample collection.

[4] = test system: swine exposed to 2.5 ATA hyperbaric oxygen for 5.5 hr; test: Experiment 2 deep exposure simulation: Impulse Oscillometry (IOS); settings: 2.5 ATA O2 5.5 hr, post-dive normalized to baseline, n=6/arm
Procedure: as §1
Hyperbaric Exposures: Individual animals were then placed into a Plexiglas box (30 in.×42 in.×38 in., manufactured in-house) within a Multiple Large Animal Chamber (MLAC), which is a steel-hulled hyperbaric chamber (450-cubic ft. floodable volume and pressure tested to 1,230 feet of seawater [fsw] equivalent) (Bethlehem Steel Corp, Bethlehem Pa.). Pressure/depth was monitored by a CPG 2500 Digital Pressure Gauge (Mensor Corp., San Marcos, Tex.). Swine were dove in pairs with each treatment group represented. Swine box assignment was alternated with respect to treatment to avoid any effects associated with individual box environmental features. Animals were monitored via closed-circuit television to observe signs of distress related to middle ear barotrauma (e.g. head shaking, nystagmus) and seizure activity. Oxygen concentration was measured and recorded using a portable O2 analyzer (Teledyne Analytical Inst, City of Industry, Calif.). […]

With `C[N+]1(C)[C@@H]2C[C@@H](OC(=O)C(O)(c3cccs3)c3cccs3)C[C@H]1[C@@H]1O[C@@H]12` [Tiotropium, tiotropium bromide] the “change in VC following hyperbaric exposure” value ([1]; 1st set of measurements) was “no change”, the “decrease in IC following hyperbaric exposure” value ([1]; 1st set of measurements, n=7, p=0.2217, mean ± SEM) was 57.14 ± 34.11 mL and the “increase in ERV following hyperbaric exposure” value ([1]; 1st set of measurements, n=7, p=0.6315, mean ± SEM) was 57.14+62.65 ml. For the same molecule, the “increase in VC following hyperbaric exposure” value ([1]; 2nd set of measurements, n=9, mean ± SEM) was 22.22+52.69 ml, the “increase in ERV following hyperbaric exposure” value ([1]; 2nd set of measurements, n=9, p=0.4806, mean ± SEM) was 44.44 ± 39.49 mL and the “decrease in IC following hyperbaric exposure” value ([1]; 2nd set of measurements, n=9, p=0.5300, mean ± SEM) was 33.33 ± 31.94 mL. For the same molecule, the “Inspiratory capacity, Saline vs Tiotropium groups” value ([1]; percent change from baseline, averaged, p=0.266) was “no significant differences”, the “Vital Capacity, Saline vs Tiotropium groups” value ([1]; percent change from baseline, averaged, p=0.325) was “no significant differences” and the “Expiratory Reserve Volume, Saline vs Tiotropium groups” value ([1]; percent change from baseline, averaged, p=0.900) was “no significant differences”. The “IOS resistance, Tiotropium treated animals vs saline controls” value ([2]; p=0.172) was “no significant differences”, the “IOS reactance, Tiotropium treated animals vs saline controls” value ([2]; p=0.65) was “no significant differences” and the “adverse effect on outcome at any of the assessed endpoints” value ([3]; 1.5 ATA O2 17.5 hr, 18 mcg nebulized pre-dive) was “no observable adverse effect”. The “adverse reactions (including seizure)” value ([3]; 1.5 ATA oxygen exposure) was “no adverse reactions”, the “IOS resistance in saline treated controls when compared to Tiotropium treated swine” value ([4]; all frequencies, p=0.0421) was “significant decrease in resistance” and the “IOS reactance in saline treated controls when compared to Tiotropium treated swine” value ([4]; p=0.0587) was “decrease in reactance which approached significance; also recorded: decrease in reactance, which approached significance”.
